Tests used:
Panc-1 xenograft tumors = assay: Panc-1 xenograft model in nude mice; assay type: in vivo; conditions: for inhibition of tumor growth: 5 days/week, vs control group
Method: Since it exerted potent effects in vitro, we determined whether FBA-TPQ could also show anti-tumor effects in vivo. Nude mice bearing Panc-1 xenograft tumors were treated with vehicle or FBA-TPQ at 5 or 10 mg/kg/day, 5 days per week.
Figure 3 In vivo effects of FBA-TPQ administered to nude mice bearing Panc-1 xenograft tumors. (a) FBA-TPQ was administered by intraperitoneal (ip) injection at doses of 5 mg/kg/day, 5 days/week for 3 weeks and 10 mg/kg/day, 5 days/week for 2 weeks, tumors were measured […]; (b) At the end of the experiment, representative tumors were removed and photographed; (c) Animals were also monitored for changes in body weight as a surrogate marker for toxicity.
The animal use and care protocol was approved by the Institutional Animal Use and Care Committee of Texas Tech University Health Sciences Center. Female athymic pathogen-free nude mice (nu/nu, 4–6 weeks) were purchased from the Charles River Laboratories International. Inc. (Wilmington, MA, USA). To establish Panc-1 human pancreatic cancer xenograft tumors, cultured Panc-1 cells were harvested from monolayer cultures, washed twice with serum-free medium, re-suspended and injected sc (5 × 10^6 cells, total volume 0.2 mL) into the left inguinal area of the mice. All animals were monitored for activity, physical condition, body weight, and tumor growth. Tumor size was determined every other day by caliper measurement of two perpendicular diameters of the implant. Tumor mass (in g) was calculated by the formula, 1/2a × b^2 where “a” is the long diameter and “b” is the short diameter (in cm).
The animals bearing human cancer xenografts were randomly divided into various treatment groups and a control group (7–10 mice/group). The untreated control group received the vehicle only. For the Panc-1 xenograft model, FBA-TPQ was dissolved in PEG400: ethanol: saline (57.1: 14.3: 28.6, v/v/v),and was administered by intraperitoneal (ip) injection at doses of 5 and 10 mg/kg/d, 5 d/wk for 3 weeks.

[1] = Stability in plasma and tissue samples; assay type: in vitro ADME, mouse; conditions: RE within ±15%
Method: The stability of FBA-TPQ was evaluated at two concentrations (0.5 and 5.0 µM). […] At the designated time points, the samples were extracted and analyzed using the established RRLC analytical method. The stability of FBA-TPQ was assessed by comparing the initial concentration (time 0) with the final concentration following incubation of the compound at the noted temperatures, and expressing this difference as a percentage of the initial concentration.

For O=C1C(NCc2ccc(F)cc2)=CC2=NCCc3c[nH]c1c32 [FBA-TPQ, 7-(4-fluorobenzylamino)-1,3,4,8-tetrahydropyrrolo[4,3,2-de]quinolin-8(1H)-one], the “inhibition of tumor growth” value (Panc-1 xenograft tumors; 5 mg/kg/day ip) was 77.8%, the “inhibition of tumor growth” value (Panc-1 xenograft tumors; 10 mg/kg/day ip) was 90.1% and the “host toxicity (body weight as surrogate marker)” value (Panc-1 xenograft tumors; 5 and 10 mg/kg/day ip) was “No significant host toxicity”. The tumor regression/remission (Panc-1 xenograft tumors; both treated groups (5 and 10 mg/kg/day ip)) was “significant tumor regression or complete remission”, the “stability in plasma and tissue samples” value ([1]; 3 months at −80 °C) was “stable” and the “stability in plasma and tissue samples” value ([1]; 2 h at 22 °C following three freeze/thaw cycles (−20 to 22 °C)) was “stable”. For the same molecule, the “stability in plasma and tissue samples” value ([1]; 24 h after preparation at 22 °C, low and high concentrations) was “stable”.

Source: PMC3397457, “Preclinical Evaluation of Anticancer Efficacy and Pharmacological Properties of FBA-TPQ, a Novel Synthetic Makaluvamine Analog” (Marine Drugs, 2012)
